Measured values published in PubChem BioAssay (NCI).
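GI50 = concentration required for 50% inhibition of growth. TGI: concentration producing complete growth inhibition.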

Key:
Experiment in all cases: growth of human tumour cells (NCI), 384-well format
MCF7 breast = tested on: MCF7 breast
SF-539 CNS = tested on: SF-539 CNS
SK-MEL-28 melanoma = tested on: SK-MEL-28 melanoma
EKVX NSCLC = tested on: EKVX NSCLC
HOP-92 NSCLC = tested on: HOP-92 NSCLC
OVCAR-5 ovarian = tested on: OVCAR-5 ovarian
RXF 393 renal = tested on: RXF 393 renal
HCC-2998 colon = tested on: HCC-2998 colon
HCT-15 colon = tested on: HCT-15 colon
MDA-MB-468 breast = tested on: MDA-MB-468 breast
MDA-MB-435 melanoma = tested on: MDA-MB-435 melanoma
MOLT-4 leukemia = tested on: MOLT-4 leukemia
786-0 renal = tested on: 786-0 renal
TK-10 renal = tested on: TK-10 renal
SK-OV-3 ovarian = tested on: SK-OV-3 ovarian
SNB-75 CNS = tested on: SNB-75 CNS
BT-549 breast = tested on: BT-549 breast
UACC-62 melanoma = tested on: UACC-62 melanoma
KM12 colon = tested on: KM12 colon
OVCAR-3 ovarian = tested on: OVCAR-3 ovarian
ACHN renal = tested on: ACHN renal
HS 578T breast = tested on: HS 578T breast
SF-295 CNS = tested on: SF-295 CNS
MALME-3M melanoma = tested on: MALME-3M melanoma
HL-60(TB) leukemia = tested on: HL-60(TB) leukemia
COLO 205 colon = tested on: COLO 205 colon
LOX IMVI melanoma = tested on: LOX IMVI melanoma
NCI-H322M lung = tested on: NCI-H322M lung
U251 glioblastoma = tested on: U251 glioblastoma
OVCAR-4 ovarian = tested on: OVCAR-4 ovarian
IGROV1 ovarian = tested on: IGROV1 ovarian
UACC-257 melanoma = tested on: UACC-257 melanoma
NCI-H460 NSCLC = tested on: NCI-H460 NSCLC
NCI/ADR-RES ovarian = tested on: NCI/ADR-RES ovarian
SK-MEL-5 melanoma = tested on: SK-MEL-5 melanoma
K-562 leukemia = tested on: K-562 leukemia
HOP-62 NSCLC = tested on: HOP-62 NSCLC
CCRF-CEM leukemia = tested on: CCRF-CEM leukemia
MDA-MB-231 breast = tested on: MDA-MB-231 breast
SW-620 colon = tested on: SW-620 colon
PC-3 prostate = tested on: PC-3 prostate
SR leukemia = tested on: SR leukemia
M14 melanoma = tested on: M14 melanoma
HT29 colon = tested on: HT29 colon
A498 renal = tested on: A498 renal
NCI-H226 lung = tested on: NCI-H226 lung
DU-145 prostate = tested on: DU-145 prostate
OVCAR-8 ovarian = tested on: OVCAR-8 ovarian
T-47D breast = tested on: T-47D breast
NCI-H23 lung = tested on: NCI-H23 lung
RPMI-8226 leukemia = tested on: RPMI-8226 leukemia
SF-268 CNS = tested on: SF-268 CNS
NCI-H522 lung = tested on: NCI-H522 lung
A549 NSCLC = tested on: A549 NSCLC
SN12C renal = tested on: SN12C renal
CAKI-1 renal = tested on: CAKI-1 renal
SNB-19 CNS = tested on: SNB-19 CNS
UO-31 renal = tested on: UO-31 renal

Compound: Cn1cncc1[C@@](N)(c1ccc(Cl)cc1)c1ccc2c(c1)c(-c1cccc(Cl)c1)cc(=O)n2C
- GI50 (MCF7 breast): 1.08 µM
- TGI (MCF7 breast): 3.66 µM
- GI50 (SF-539 CNS): 1.21 µM
- TGI (SF-539 CNS): 4.33 µM
- GI50 (SK-MEL-28 melanoma): 1.37 µM
- TGI (SK-MEL-28 melanoma): 6.44 µM
- GI50 (EKVX NSCLC): 1.52 µM
- TGI (EKVX NSCLC): 6.02 µM
- GI50 (HOP-92 NSCLC): 0.271 µM
- TGI (HOP-92 NSCLC): 3.62 µM
- GI50 (OVCAR-5 ovarian): 2.49 µM
- TGI (OVCAR-5 ovarian): 12.2 µM
- GI50 (RXF 393 renal): 0.472 µM
- TGI (RXF 393 renal): 10.1 µM
- GI50 (HCC-2998 colon): 1.27 µM
- TGI (HCC-2998 colon): 3.23 µM
- GI50 (HCT-15 colon): 0.884 µM
- TGI (HCT-15 colon): 5.18 µM
- GI50 (MDA-MB-468 breast): 0.0235 µM
- TGI (MDA-MB-468 breast): 1.83 µM
- GI50 (MDA-MB-435 melanoma): 0.189 µM
- TGI (MDA-MB-435 melanoma): 1.51 µM
- GI50 (MOLT-4 leukemia): < 0.01 µM
- TGI (MOLT-4 leukemia): 0.0579 µM
- GI50 ([…]-0 renal): 1.16 µM
- TGI (786-0 renal): 8.76 µM
- GI50 (TK-10 renal): 1.75 µM
- TGI (TK-10 renal): 6.98 µM
- GI50 (SK-OV-3 ovarian): 1.26 µM
- TGI (SK-OV-3 ovarian): 8.17 µM
- GI50 (SNB-75 CNS): 1.35 µM
- TGI (SNB-75 CNS): 4.96 µM
- GI50 (BT-549 breast): 1.34 µM
- TGI (BT-549 breast): 4.32 µM
- GI50 (UACC-62 melanoma): 0.173 µM
- TGI (UACC-62 melanoma): 2.75 µM
- GI50 (KM12 colon): 0.186 µM
- TGI (KM12 colon): 2.31 µM
- GI50 (OVCAR-3 ovarian): 1.25 µM
- TGI (OVCAR-3 ovarian): 3.77 µM
- GI50 (ACHN renal): 1.28 µM
- TGI (ACHN renal): 5.31 µM
- GI50 (HS 578T breast): 1.46 µM
- TGI (HS 578T breast): 4.62 µM
- GI50 (SF-295 CNS): 0.463 µM
- TGI (SF-295 CNS): 2.78 µM
- GI50 (MALME-3M melanoma): 0.141 µM
- TGI (MALME-3M melanoma): 2.05 µM
- GI50 (HL-60(TB) leukemia): < 0.01 µM
- TGI (HL-60(TB) leukemia): 1.28 µM
- GI50 (COLO 205 colon): 1.23 µM
- TGI (COLO 205 colon): 3.77 µM
- GI50 (LOX IMVI melanoma): 1.13 µM
- TGI (LOX IMVI melanoma): 3.31 µM
- GI50 (NCI-H322M lung): 2.06 µM
- TGI (NCI-H322M lung): 15.8 µM
- GI50 (U251 glioblastoma): 1.11 µM
- TGI (U251 glioblastoma): 12.6 µM
- GI50 (OVCAR-4 ovarian): 1.13 µM
- TGI (OVCAR-4 ovarian): 5.26 µM
- GI50 (IGROV1 ovarian): 1.56 µM
- TGI (IGROV1 ovarian): 4.99 µM
- GI50 (UACC-257 melanoma): 1.38 µM
- TGI (UACC-257 melanoma): 4.88 µM
- GI50 (NCI-H460 NSCLC): 0.391 µM
- TGI (NCI-H460 NSCLC): 6.17 µM
- GI50 (NCI/ADR-RES ovarian): 1.62 µM
- TGI (NCI/ADR-RES ovarian): 5.51 µM
- GI50 (SK-MEL-5 melanoma): 0.313 µM
- TGI (SK-MEL-5 melanoma): 2.13 µM
- GI50 (K-562 leukemia): 0.2 µM
- TGI (K-562 leukemia): 2.05 µM
- GI50 (HOP-62 NSCLC): 1.9 µM
- TGI (HOP-62 NSCLC): 8.68 µM
- GI50 (CCRF-CEM leukemia): < 0.01 µM
- TGI (CCRF-CEM leukemia): 1.25 µM
- GI50 (MDA-MB-231 breast): 1.52 µM
- TGI (MDA-MB-231 breast): 8.3 µM
- GI50 (SW-620 colon): 1.36 µM
- TGI (SW-620 colon): 4.41 µM
- GI50 (PC-3 prostate): 1.42 µM
- TGI (PC-3 prostate): 6.97 µM
- GI50 (SR leukemia): 0.0129 µM
- TGI (SR leukemia): 0.194 µM
- GI50 (M14 melanoma): 0.022 µM
- TGI (M14 melanoma): 2.21 µM
- GI50 (HT29 colon): 1.38 µM
- TGI (HT29 colon): 3.62 µM
- GI50 (A498 renal): 0.0746 µM
- TGI (A498 renal): 4.04 µM
- GI50 (NCI-H226 lung): 1.08 µM
- TGI (NCI-H226 lung): 6.96 µM
- GI50 (DU-145 prostate): 2.4 µM
- TGI (DU-145 prostate): 12.1 µM
- GI50 (OVCAR-8 ovarian): 2.41 µM
- TGI (OVCAR-8 ovarian): 12.3 µM
- GI50 (T-47D breast): 0.0645 µM
- TGI (T-47D breast): 3.67 µM
- GI50 (NCI-H23 lung): 1.51 µM
- TGI (NCI-H23 lung): 4.81 µM
- GI50 (RPMI-8226 leukemia): 0.0111 µM
- TGI (RPMI-8226 leukemia): 0.218 µM
- GI50 (SF-268 CNS): 1.78 µM
- TGI (SF-268 CNS): 11.4 µM
- GI50 (NCI-H522 lung): 1.1 µM
- TGI (NCI-H522 lung): 3.85 µM
- GI50 (A549 NSCLC): 1.64 µM
- TGI (A549 NSCLC): 11.1 µM
- GI50 (SN12C renal): 0.179 µM
- TGI (SN12C renal): 5.39 µM
- GI50 (CAKI-1 renal): 2.11 µM
- TGI (CAKI-1 renal): 11.9 µM
- GI50 (SNB-19 CNS): 2.33 µM
- TGI (SNB-19 CNS): 13.2 µM
- GI50 (UO-31 renal): 0.708 µM
- TGI (UO-31 renal): 9.77 µM
